Measured values taken from article PMC5656322, “BAK1 is involved in AtRALF1-induced inhibition of root cell expansion” (PLoS Genetics, 2017).
Where no end group is shown, it is not given here.

What was measured:
HA-BAK1-ECD = test: Co-immunoprecipitation in vitro; type: binding, Arabidopsis thaliana; conditions: 100 nM each protein, pH 6.3, overnight 4 °C, agarose anti-HA beads
Method: The purified recombinant proteins AtRALF1 and HA-BAK1-ECD and the synthetic peptides RALF1(9–49) and RALF1(I6A) were combined in 200 μl of interaction buffer pH 6.3 (100 mM NaCl; 1 mM PMSF; 0.5%Triton X; 2.7 mM KCl; 8 mM NaH2PO4; 2 mM KH2PO4) overnight at 4 °C. A 100-nM concentration of each protein was used. This solution was incubated with agarose anti-HA beads (EZview Red Anti-HA Affinity Gel, Sigma) for 30 min at 4 °C to immunoprecipitate the proteins, washed 5 times with interaction buffer, eluted in 1X SDS sample buffer containing 10% β-mercaptoethanol and applied to an SDS-PAGE gel. The immunoprecipitated HA-BAK1-ECD and co-immunoprecipitated AtRALF1 were analyzed by protein blotting as described. The primary and secondary antibodies used to detect AtRALF1 were anti-AtRALF1 (1:10,000, Celula B, Immunology Laboratory, UFRGS, Brazil) and goat anti-rabbit HRP-conjugated secondary antibody (1: 10,000, BioRad), respectively.

[1] = system: Arabidopsis seedlings, primary root; test: Root growth inhibition assay, liquid medium, 24-well plates; type: in vivo, Arabidopsis thaliana; conditions: 10 μM, 2 days
Method: (A) and (B) Arabidopsis seedlings (2 days old) were treated with 10 μM AtRALF1 or water (H20) for 2 days. The values are the mean ± SD of at least 25 seedlings. Triple asterisks indicate P < 0.01 (Student’s t test); ns, not significant. (C) Four-day-old seedlings were transferred to media containing different concentrations of AtRALF1, and the primary root length was measured after 8 days of treatment. The data represent the mean value ± SD of 30 seedlings. […] Representative Arabidopsis seedlings after 8 days of treatment with AtRALF1 are shown below. Seedlings were arranged on plates after the treatment for imaging. Scale bars, 1 cm. (D) Two-day-old seedlings were treated with 10 μM AtRALF1 or water for 2 days, and root cell length was measured after 2 days of treatment. Cells from the root endodermis in the differentiation zone were measured. The values are the mean ± SD of approximately 150 cells. Triple asterisks indicate P < 0.01 (Student’s t test); ns, not significant.
Aliquots of 1 ml of medium containing seeds were distributed into 24-well plates. The peptides (10 μM) were added after 2 days, and the root length was measured 2 days after treatment. To maximize root growth, the seeds were germinated in vertical plates. […] The root length was measured 8 days after treatment unless stated otherwise. Control plants were grown under identical conditions in a peptide-free medium. Quantitative data were obtained as previously described. The experiments were repeated at least 3 times using independent biological replicates with similar results. The data from one representative experiment are shown. For cell length measurements, AtRALF1 peptide (10 μM) was added after 2 days of germination, and the cell length was measured after 2 days of treatment. The cell wall was stained with a 1 mg ml^-1 propidium iodide solution (Sigma) in the dark for 15 min and washed twice with water. Cells of the endodermis of the root differentiation zone were imaged and measured using confocal microscopy (Olympus FV1000). Approximately 30 plants from each genetic background and at least 5 cells per root were measured. The wavelengths for excitation and emission were 555 and 655 nm, respectively. Image processing was completed using the Olympus FluoView software.
Arabidopsis seedlings (2-days-old) were treated with 10 μM AtRALF1 or water (H20) for 2 days. The values are the mean ± SD of at least 25 seedlings. Triple asterisks indicate P < 0.01 (Student’s t test); ns, not significant. (PDF) Click here for additional data file.
Supplementary file pgen.1007053.s002.pdf: S2 Fig Loss-of-function bak1 mutants are sensitive to the inhibitory activity of AtRALF23/34 on root growth. Arabidopsis seedlings (2-day-old) were treated with 10 μM RALF1(9–49), RALF1(I6A), AtRALF1, AtRALF23 and AtRALF34 or water (H20) for 2 days. The values are the mean ± SD of at least 20 seedlings. […] (PDF) Click here for additional data file.

| Substance | co-immunoprecipitation with HA-BAK1-ECD (HA-BAK1-ECD) | root growth inhibition ([1]; bak1-1 and bak1-3 mutants) | sensitivity to root growth inhibition ([1]; bak1-4 complemented with pBAK1:BAK1) | root growth inhibition ([1]; bri1-301, bsk3-2, sud1, bes1-D, bzr1-D, BRI OX, DWF4 OX lines) | sensitivity to root growth inhibition ([1]; loss-of-function bak1 mutants (bak1-4)) | root growth inhibition ([1]; serk1, serk2, serk4 (bak7), serk5 (bak8) mutants) | activity of negative control peptides on root growth [1] |
| --- | --- | --- | --- | --- | --- | --- | --- |
| AtRALF1: root-specific RALF isoform in Arabidopsis; recombinant peptide hormone produced in E. coli (ATTKYISYQSLKRNSVPCSRRGASYYNCQNGAQANPYSRGCSKIARCRS; ends and bridges not checked; cysteine pairing not given here) | co-immunoprecipitated | exhibited no effect | recovered the sensitivity to the inhibitory effect of AtRALF1 treatment | exhibited root growth inhibition by AtRALF1 | insensitive to the inhibitory activity of AtRALF1 on root growth | inhibited the root growth | – |
| RALF1(9–49): inactive AtRALF1 peptide which has a deletion of the first 8 amino acids (QSLKRNSVPCSRRGASYYNCQNGAQANPYSRGCSKIARCRS; ends and bridges not checked; cysteine pairing not given here; UniProt Q9SRY3 80-120, looked up, fragment) | did not co-immunoprecipitate with BAK1 | – | – | – | – | – | inactive |
